Data set [1] relates to Enterovirus A71. The data set is described as follows: Antiviral activity against C4 type Human enterovirus 71 FY0805 infected in human RD cells assessed as inhibition of viral replication by plaque reduction assay. The data set is classed as functional, organism-based. The settings on record: Enterovirus A. (Plaque reduction counts the foci of infection that form in a cell layer.)

The test system of data set [2] is Enterovirus A71. The data set is described as follows: Antiviral activity against C4 type Human enterovirus 71 MP10 infected in ICR mouse assessed as increase in survival rate at 50 mg/kg, ip administered 2 hrs post infection qd for 7 days measured up to 14 days. The settings on record: route intraperitoneal. It counts as functional.
The nature of data set [3]: Selectivity index, ratio of CC50 for human RD cells to IC50 for C4 type Human enterovirus 71 FY0805. It counts as functional.
In data set [4] the test system is Enterovirus A71. The data set is described as follows: Antiviral activity against C4 type Human enterovirus 71 FY0805 infected in human RD cells assessed as inhibition of infectious virus yeild at 20 ug/ml treated 2 hrs post infection measured after 32 to 72 hrs by TCID50 assay relative to control. The data set is classed as functional, organism-based.
The test system of data set [5] is Enterovirus A71. The data set is described as follows: Antiviral activity against C4 type Human enterovirus 71 MP10 infected in ICR mouse assessed as inhibition of viral replication in muscle at 0.4 mg/kg, ip administered 2 hrs post infection qd for 7 days measured up to 7 days by qRT-PCR analysis. The data set is classed as functional, organism-based. On the set-up: dose 0.4 mg/kg. The settings on record: Muscle tissue. A general note: Quantitative PCR measures a nucleic acid by following its amplification.

Data set [6] deals with Enterovirus A71. The data set is described as follows: Antiviral activity against C4 type Human enterovirus 71 MP10 infected in ICR mouse assessed as delay in appearance of infection symptoms at 0.4 mg/kg, ip administered 2 hrs post infection qd for 7 days measured up to 14 days. The data set is classed as functional, organism-based. On the set-up: dose 0.4 mg/kg.
The subject of the next data set is Mus musculus. The data set is described as follows: Toxicity in Human enterovirus 71 MP10 infected ICR mouse at 0.4 to 1 mg/kg, ip qd for 7 days measured up to 14 days. The data set is classed as organism-based. On the set-up: dose 0.4-1 mg/kg, route intraperitoneal. The settings on record: in vivo.
For data set [7], the system named is Enterovirus A71. The data set is described as follows: Antiviral activity against C4 type Human enterovirus 71 MP10 infected in ICR mouse assessed as delay in paralysis at 0.4 mg/kg, ip administered 2 hrs post infection qd for 7 days measured up to 14 days. The data set is classed as functional, organism-based. On the set-up: dose 0.4 mg/kg.
A short description of data set [8]: Cytotoxicity against human RD cells. It counts as cell-based.
The subject of data set [9] is Enterovirus A71. The data set is described as follows: Antiviral activity against C4 type Human enterovirus 71 MP10 infected in ICR mouse assessed as recovery at 0.4 mg/kg, ip administered 2 hrs post infection qd for 7 days measured up to 14 days. The data set is classed as functional, organism-based. On the set-up: dose 0.4 mg/kg.
Data set [10] concerns Enterovirus A71. The data set is described as follows: Antiviral activity against C4 type Human enterovirus 71 FY0805 infected in human RD cells assessed as inhibition of […] at 20 ug/ml treated 2 hrs post infection measured after 32 to 72 hrs by qRT-PCR analysis relative to control. The data set is classed as functional, organism-based. For orientation: Damage to the host cells serves as the signal in cytopathic effect assays.

Data set [11] relates to Enterovirus A71. The data set is described as follows: Antiviral activity against C4 type Human enterovirus 71 MP10 infected in ICR mouse assessed as increase in survival rate at 1 mg/kg, ip administered 2 hrs post infection qd for 7 days measured up to 14 days. The data set is classed as functional. Particulars: route intraperitoneal.
Data set [12] deals with Enterovirus A71. The data set is described as follows: Antiviral activity against C4 type Human enterovirus 71 MP10 infected in ICR mouse assessed as increase in survival rate at 0.4 mg/kg, ip administered 2 hrs post infection qd for 7 days measured up to 14 days. The data set is classed as functional. The settings on record: route intraperitoneal.
In data set [13] the test system is Enterovirus A71. The data set is described as follows: Antiviral activity against C4 type Human enterovirus 71 MP10 infected in ICR mouse assessed as disappearance of ruffled hair at 0.4 mg/kg, ip administered 2 hrs post infection qd for 7 days measured up to 14 days. It counts as functional, organism-based. On the set-up: dose 0.4 mg/kg.
Data set [14] has as its system Enterovirus A71. The data set is described as follows: Antiviral activity against Human enterovirus 71 infected in mouse assessed as increase in survival rate. It counts as functional.

The source of these data is ChEMBL document CHEMBL1955845, “Antiviral effect of geraniin on human enterovirus 71 in vitro and in vivo” (Bioorg Med Chem Lett, 2012).

Values after ≈ are worked out from the molar mass of the structure shown. Active and inactive are the calls of the source. No cut-off for these calls is given here.

A word on the IC50: it is the point on the concentration scale where inhibition reaches its midpoint. A word on the CC50: it is the concentration at which the toxic effect on the cells reaches its halfway point. Lower therefore signals greater toxicity to the cells.

As for `NC(=O)c1ncn([C@@H]2O[C@H](CO)[C@@H](O)[C@H]2O)n1` [RIBAVIRIN], the IC50 in the data set with Enterovirus A71 [1] turned out to be 60 µg/mL (≈ 246 µM). Besides, the Activity in the data set on Enterovirus A71 [2] was determined as 5%.
In the case of `O=C1O[C@H]2[C@@H]3OC(=O)c4cc(O)c(O)c(O)c4-c4c(cc(O)c(O)c4O)C(=O)OC[C@H]2O[C@@H](OC(=O)c2cc(O)c(O)c(O)c2)[C@@H]3OC(=O)c2cc(O)c(O)c3c2[C@@H]2C1=CC(=O)[C@](O)(O3)C2(O)O` [GERANIIN], the “Ratio CC50/IC50” value in data set [3] came out at 20. The inhibition entry in the data set with Enterovirus A71 [4], in the data set on Enterovirus A71 [5] and with Enterovirus A71 [10] was “Active” each time. Moreover, the result with Enterovirus A71 [6], in the data set on Enterovirus A71 [7], with Enterovirus A71 [9] and in the data set on Enterovirus A71 [13] was Active. Moreover, the Activity result with Mus musculus is recorded as “Non-toxic”; in the data set with Enterovirus A71 [11] it was 40%; with Enterovirus A71 [12], 35%. Also, it took 200 µg/mL (≈ 210 µM) to reach half-maximal cytotoxicity in data set [8] (CC50). The IC50 in the data set with Enterovirus A71 [1] came out at 10 µg/mL (≈ 10.5 µM).
Regarding `O[C@H]1[C@H]2c3cc4c(cc3CN3CCC(=C[C@@H]1O)[C@H]23)OCO4` [LYCORINE], the Activity in the data set on Enterovirus A71 [14] is given as 18%.
